Assay results from patent US20210038602A1, “COMBINATION TREATMENT OF ACUTE MYELOID LEUKEMIA” (Boehringer Ingelheim International GmbH, priority 2018, published 2021).

Test system: AML cell line MV-4-11B
Experiment: IncuCyte live cell imaging assay: cell growth (confluence) and apoptosis (Caspase-3/7 green fluorescence) over time
Format: cell-based
Conditions: MV-4-11B cells, single compound treatment, vs DMSO control
Method: The analysis is done by the Essen BioScience IncuCyte™ FLR live cell imaging system. It enables observation and quantification of cell behavior over time by automatically gathering and analyzing images around the clock. This live-cell, non-perturbating imaging approach yields kinetic data, all generated within the controlled environment of a standard cell incubator.
MV-4-11B is the AML cell line MV-4-11 from ATCC (CRL-9591) which has achieved a mutation in TP53 (c.742C>T, p.R248W, heterozygous for TP53). MV-4-11B cells were grown in T-75 flasks using RPMI1640 medium supplemented with 10% fetal calf serum and 50 μM mercaptoethanol. Cultures were incubated at 37° C. and 5% CO2 in a humidified atmosphere.
For the IncuCyte live cell imaging assays, cells were plated in 96 well plates, Poly-D-Lysine coated, and were incubated with the respective compounds (BET inhibitor 1-12, volasertib), either alone or in combination. For the detection of apoptotic cells, the Essen BioSciences CellPlayer™ 96 well Kinetic Caspase-3/7 Reagent was added.
To determine cell proliferation, “confluence” (area covered with cells in the wells) was used as readout, to determine the amount of apoptosis (dead cells), the intensity of green fluorescence was used as readout.

`CC[C@@H]1C(=O)N(C)c2cnc(Nc3ccc(C(=O)N[C@H]4CC[C@H](N5CCN(CC6CC6)CC5)CC4)cc3OC)nc2N1C(C)C` [volasertib, N-[trans-4-[4-(cyclopropylmethyl)-1-piperazinyl]cyclohexyl]-4-[[(7R)-7-ethyl-5,6,7,8-tetrahydro-5-methyl-8-(1-methylethyl)-6-oxo-2-pteridinyl]amino]-3-methoxy-benzamide] was tested, and the “Cell growth (confluence)” value (over time (FIGS. 1-12 a)) was “reduced in comparison to DMSO control treated cells” and the “Apoptosis (Caspase-3/7 green fluorescence)” value (over time (FIGS. 1-12 b)) was “increased in comparison to DMSO control treated cells”.
